Data on 2 molecules can be found in patent publication US11311043B2, “Preparation of glucan-based shell-core structure carrier material and its application thereof” (Jiangnan University, priority 2018, dated 2022).

Series [1] is described as follows: Biological stability by oxidation rate POV (potassium thiocyanate peroxide value method). It is filed as physicochemical. The conditions noted are these: conjugated linoleic acid carried; stability from maximum peroxide value (POV). As to the method:
To better realize the present invention, biological stability is characterized by determining the oxidation rate POV (peroxide value) by applying a potassium thiocyanate POV determining method. POV is calculated through the formula below: […]
c and c0 are the mass of iron in a test sample and a blank sample; m is the mass of CLA; 2 is a conversion factor; and 55.84 is the relative atomic mass of iron. The degree of oxidation of pure nutritional factors serves as control, and the maximum values of the amount of peroxide (POV) in the control and the material are calculated and compared. POV is the amount of peroxide in a first stage product obtained after fat oxidation. Because it cannot be excluded that a small amount of peroxide continues to decompose into small molecular substances under an oxidizing environment, the stability is characterized by: Stability[…](100−100 g CLA maximum value of the amount of peroxide generated by oxidation)/100*100%.

For the next series, the system named is Intestinal cell. Kind of series: Intestinal cell experiment: hydrogen peroxide irritation, cell activity by MTT method. The conditions noted are these: 2 mM hydrogen peroxide for 2 h, then cultured 4 h. The format is cell-based. The procedure:
Cell experiment: Intestinal cell experiment is performed on a carrying complex. 100 μL of a carrying material-nutritional factor complex dissolved solution is added to a cell culture solution, 2 mM of a hydrogen peroxide solution is added for irritating cells for 2 h, and the cells are continued to be cultured for 4 h. Cell activity is detected by an MTT method.
(Tetrazolium assays rely on reduction of a dye to a coloured formazan, in cell work by metabolically active cells.)

Turning to conjugated linoleic acid [Control 1], the Biological stability in series [1] is reported as 58.2%. Consider `COC1=C(OC)C(=O)C(C/C=C(\C)CC/C=C(\C)CC/C=C(\C)CC/C=C(\C)CC/C=C(\C)CC/C=C(\C)CC/C=C(\C)CC/C=C(\C)CC/C=C(\C)CCC=C(C)C)=C(C)C1=O` [Coenzyme Q10, coenzyme Q10], for which the Cell activity % was determined as 92 ± 3.4% in the series with Intestinal cell (1 μg/ml) and 97 ± 2.6% in the series with Intestinal cell (10 μg/ml).
